Experimental data published in patent US6337326B1, “N-aryl-(homopiperazinyl)-cyclohexyl amines” (American Home Products Corporation, priority 1999, dated 2002).
Where a name gives a salt, the structure may show the parent alone.

Columns and labels:
5-HT transporter = target: T1, 5-HT transporter (Rattus norvegicus, UniProt P31652); test: Rat Brain 3H-Paroxetine Binding Assay (RB 5HT Transporter); conditions: frontal cortical membranes from male S.D. rats, 3H-paroxetine 0.1 nM, 60 min, 25° C.
T1 construct: from tissue; host or cells: frontal cortical membranes of male Sprague-Dawley rats
Description: Rat Brain ^3H-Paroxetine Binding Assay (RB 5HT Transporter)
The following assay was used to determine a compound's affinity of the 5-HT transporter.
A protocol similar to that used by Cheetham et. al. (Neuropharmacol. 1993, 32, 737) was used. Briefly, frontal cortical membranes prepared from male S.D. rats were incubated with ^3H-parxetine (0.1 nM) for 60 min. at 25° C. All tubes also contained either vehicle, test compound (one to eight concentrations), or a saturating concentration of fluoxetine (10 μM) to define […]. All reactions are terminated by the addition of ice cold Tris buffer followed by rapid filtration using a Tom Tech filtration device to separate bound from free ^3H-paroxetine. Bound radioactivity was quantitated using a Wallac 1205 Beta Plate® counter. Nonlinear regression analysis was used to determine IC50 values which were converted to Ki values using the method of Cheng and Prusoff (Biochem. Pharmacol. 1973, 22, 3099); [formula]

Human 5-HT Transporter = target: T2, Human 5-HT Transporter (Homo sapiens, UniProt P31645); test: Inhibition of 3H-5-HT Uptake by cells Possessing the Human 5-HT Transporter (HC 5-HT Transporter); type: cell-based; conditions: Jar cells (human carcinoma) treated with staurosporine, 37° C., 5 min
T2 construct: endogenous in cells; host or cells: Jar cells (human carcinoma cell line), treated with staurosporine
Description: [Staurosporine greatly increases the expression of the 5-HT-transporter.] On the day of assay, vehicle, excess of fluoxetine, or test compound is added to various wells on the plate. All wells then receive ^3H-5-HT and are incubated at 37° C. for 5 min. The wells are then washed with ice cold 50 mM Tris HCl (pH 7.4) buffer and aspirated to remove free ^3H-5-HT. 25 μl of 0.25 M NaOH is then added to each well to lyse the cells and 75 μl scintillation cocktail (Microscint™ 20) added prior to quantitation on a Packard TopCount machine. Tubes with vehicle represent total possible uptake, radioactivity counted in tubes with fluoxetine represent nonspecific binding/uptake and is subtracted from the total possible uptake to give total possible specific uptake. This nonspecific binding (usual low in number) is then subtracted from the counts obtained in wells with various test compounds (or different concentrations of test drug) to give specific uptake in the presence of drug. Specific uptake is then expressed as a % of control values and is analyzed using nonlinear regression analysis (Prizm) to determine IC50 values. If the compound is active at inhibiting 5-HT uptake, its counts will be close to that obtained with fluoxetine.

T2 sequence (P31645 whole entry): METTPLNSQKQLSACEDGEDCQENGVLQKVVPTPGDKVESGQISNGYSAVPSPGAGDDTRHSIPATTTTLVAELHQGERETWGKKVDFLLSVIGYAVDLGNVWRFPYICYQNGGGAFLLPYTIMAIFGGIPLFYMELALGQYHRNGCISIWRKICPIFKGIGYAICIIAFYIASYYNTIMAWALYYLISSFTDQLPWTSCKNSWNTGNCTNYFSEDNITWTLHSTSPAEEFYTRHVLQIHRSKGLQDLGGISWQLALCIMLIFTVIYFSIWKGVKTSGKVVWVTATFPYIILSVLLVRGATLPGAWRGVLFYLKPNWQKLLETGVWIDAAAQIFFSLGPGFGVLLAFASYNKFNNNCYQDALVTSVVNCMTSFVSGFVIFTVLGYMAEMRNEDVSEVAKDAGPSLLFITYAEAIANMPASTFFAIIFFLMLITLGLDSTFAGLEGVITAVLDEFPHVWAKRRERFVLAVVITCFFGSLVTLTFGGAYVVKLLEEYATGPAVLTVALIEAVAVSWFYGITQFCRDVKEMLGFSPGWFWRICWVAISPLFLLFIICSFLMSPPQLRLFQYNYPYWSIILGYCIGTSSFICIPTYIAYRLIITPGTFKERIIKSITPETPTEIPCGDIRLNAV
T1 sequence (P31652 whole entry): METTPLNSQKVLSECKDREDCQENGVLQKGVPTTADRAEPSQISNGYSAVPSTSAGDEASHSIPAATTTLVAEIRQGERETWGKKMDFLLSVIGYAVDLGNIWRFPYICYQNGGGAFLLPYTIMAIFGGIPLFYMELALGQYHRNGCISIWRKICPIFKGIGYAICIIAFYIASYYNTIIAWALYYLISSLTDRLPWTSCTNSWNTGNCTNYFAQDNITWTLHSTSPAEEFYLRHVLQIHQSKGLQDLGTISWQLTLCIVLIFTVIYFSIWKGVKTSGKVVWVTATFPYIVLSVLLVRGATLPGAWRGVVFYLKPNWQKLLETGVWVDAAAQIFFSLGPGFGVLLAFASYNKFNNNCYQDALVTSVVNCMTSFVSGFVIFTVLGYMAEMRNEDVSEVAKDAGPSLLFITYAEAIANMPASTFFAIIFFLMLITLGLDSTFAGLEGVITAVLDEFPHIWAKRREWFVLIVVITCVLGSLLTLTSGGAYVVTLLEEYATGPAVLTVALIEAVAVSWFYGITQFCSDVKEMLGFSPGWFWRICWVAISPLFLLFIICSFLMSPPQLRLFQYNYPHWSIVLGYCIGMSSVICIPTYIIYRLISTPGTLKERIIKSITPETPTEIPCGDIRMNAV

Ki (5-HT transporter)	IC50 (Human 5-HT Transporter)	melting point	SMILES
4.9 nM	272 nM	–	COc1ccccc1N1CCCN(C2CCC(c3c[nH]c4cc(F)ccc34)CC2)CC1 (stereo not shown) [Example 5, 3-{4-[4-(2-Methoxy-phenyl)-[1,4]diazepan-1-yl]-cyclohexyl}-6-fluoro-1H-indole]
9 nM	602 nM	–	Fc1ccc2[nH]cc(C3CCC(N4CCCN(c5cccc6cccnc56)CC4)CC3)c2c1 (stereo not shown) [Example 6, 8-{4-[4-(5-Fluoro-1H-indol-3-yl)-cyclohexyl]-[1,4]diazepan-1-yl}-quinoline]
42 nM	578 nM	–	COc1ccccc1N1CCCN(C2CCC(c3c[nH]c4ccccc34)CC2)CC1 (stereo not shown) [Example 1, 3-{4-[4-(2-Methoxy-phenyl)-[1,4]diazepan-1-yl]-cyclohexyl}-1H-indole]
2.7 nM	317 nM	–	Fc1ccc2c(C3CCC(N4CCCN(c5cccc6cccnc56)CC4)CC3)c[nH]c2c1 (stereo not shown) [Example 8, 8-{4-[4-(6-Fluoro-1H-indol-3-yl)-cyclohexyl]-[1,4]diazepan-1-yl}-quinoline]
9 nM	399 nM	–	c1cnc2c(N3CCCN(C4CCC(c5c[nH]c6ccccc56)CC4)CC3)cccc2c1 (stereo not shown) [Example 2, 8-{4-[4-(1H-Indol-3-yl)-cyclohexyl]-[1,4]diazepan-1-yl}-quinoline]

The next lines start with the compound.

SMILES	Ki (5-HT transporter)	IC50 (Human 5-HT Transporter)	melting point
Fc1ccc2[nH]cc(C3CCC(N4CCCN(c5cccc(C(F)(F)F)c5)CC4)CC3)c2c1 (stereo not shown) [Example 9, 3-{4-[4-(3-Trifluoromethyl-phenyl)-[1,4]diazepan-1-yl]-cyclohexyl}-5-fluoro-1H-indole]	86 nM	4470 nM	–
COc1ccccc1N1CCCN(C2CCC(c3c[nH]c4ccc(F)cc34)CC2)CC1 (stereo not shown) [Example 3, 3-{4-[4-(2-Methoxy-phenyl)-[1,4]diazepan-1-yl]-cyclohexyl}-5-fluoro-1H-indole]	12 nM	1140 nM	–
COc1ccccc1N1CCCN(C2CCC(c3c[nH]c4ccc(C#N)cc34)CC2)CC1 (stereo not shown) [Example 4]	27 nM	–	–
Fc1ccc2c(C3CCC(N4CCCN(c5cccc(C(F)(F)F)c5)CC4)CC3)c[nH]c2c1 (stereo not shown) [Example 11, 3-{4-[4-(3-Trifluoromethyl-phenyl)-[1,4]diazepan-1-yl]-cyclohexyl}-6-fluoro-1H-indole]	27 nM	1280 nM	–
N#Cc1ccc2[nH]cc(C3CCC(N4CCCN(c5cccc(C(F)(F)F)c5)CC4)CC3)c2c1 (stereo not shown) [Example 10]	207 nM	3760 nM	–
c1cnc2c(N3CCCN(C4CCC(c5c[nH]c6ccccc56)CC4)CC3)cccc2c1 (stereo not shown) (as salt: hydrochloride) [Example 2, 8-{4-[4-(1H-Indol-3-yl)-cyclohexyl]-[1,4]diazepan-1-yl}-quinoline]	–	–	152 to 165 °C
COc1ccccc1N1CCCN(C2CCC(c3c[nH]c4ccccc34)CC2)CC1 (stereo not shown) (as salt: hydrochloride) [Example 1, 3-{4-[4-(2-Methoxy-phenyl)-[1,4]diazepan-1-yl]-cyclohexyl}-1H-indole]	–	–	148 to 160 °C
N#Cc1ccc2[nH]cc(C3CCC(N4CCCN(c5cccc6cccnc56)CC4)CC3)c2c1 (stereo not shown) [Example 7, 8-{4-[4-(5-Cyano-1H-indol-3-yl)-cyclohexyl]-[1,4]diazepan-1-yl}-quinoline]	11 nM	–	–
